Source: patent publication US20230382925A1, “MODULATORS OF CYSTIC FIBROSIS TRANSMEMBRANE CONDUCTANCE REGULATOR” (VERTEX PHARMACEUTICALS INCORPORATED, priority 2020, published 2023)
Values joined by “and” are separate entries in the source; they are usually repeats but may differ in a detail not shown here. Equal entries are not always repeated. Where two headings read alike, the source gives them in different places. Blank lines part the entries; values can stand above or below the molecule they belong to.

Columns and labels:
[1] = amide bond, 13-membered ring
[2] = amide bond, 13-membered ring, DMF
[3] = target: T1, CFTR (Homo sapiens, UniProt P13569); assay: Membrane Potential Dye, Enteroid Assay A; type: cell-based; conditions: for EC50: read-out: Ent. A EC50
T1 sequence (P13569 with tags, fused parts or gaps DEL508-508): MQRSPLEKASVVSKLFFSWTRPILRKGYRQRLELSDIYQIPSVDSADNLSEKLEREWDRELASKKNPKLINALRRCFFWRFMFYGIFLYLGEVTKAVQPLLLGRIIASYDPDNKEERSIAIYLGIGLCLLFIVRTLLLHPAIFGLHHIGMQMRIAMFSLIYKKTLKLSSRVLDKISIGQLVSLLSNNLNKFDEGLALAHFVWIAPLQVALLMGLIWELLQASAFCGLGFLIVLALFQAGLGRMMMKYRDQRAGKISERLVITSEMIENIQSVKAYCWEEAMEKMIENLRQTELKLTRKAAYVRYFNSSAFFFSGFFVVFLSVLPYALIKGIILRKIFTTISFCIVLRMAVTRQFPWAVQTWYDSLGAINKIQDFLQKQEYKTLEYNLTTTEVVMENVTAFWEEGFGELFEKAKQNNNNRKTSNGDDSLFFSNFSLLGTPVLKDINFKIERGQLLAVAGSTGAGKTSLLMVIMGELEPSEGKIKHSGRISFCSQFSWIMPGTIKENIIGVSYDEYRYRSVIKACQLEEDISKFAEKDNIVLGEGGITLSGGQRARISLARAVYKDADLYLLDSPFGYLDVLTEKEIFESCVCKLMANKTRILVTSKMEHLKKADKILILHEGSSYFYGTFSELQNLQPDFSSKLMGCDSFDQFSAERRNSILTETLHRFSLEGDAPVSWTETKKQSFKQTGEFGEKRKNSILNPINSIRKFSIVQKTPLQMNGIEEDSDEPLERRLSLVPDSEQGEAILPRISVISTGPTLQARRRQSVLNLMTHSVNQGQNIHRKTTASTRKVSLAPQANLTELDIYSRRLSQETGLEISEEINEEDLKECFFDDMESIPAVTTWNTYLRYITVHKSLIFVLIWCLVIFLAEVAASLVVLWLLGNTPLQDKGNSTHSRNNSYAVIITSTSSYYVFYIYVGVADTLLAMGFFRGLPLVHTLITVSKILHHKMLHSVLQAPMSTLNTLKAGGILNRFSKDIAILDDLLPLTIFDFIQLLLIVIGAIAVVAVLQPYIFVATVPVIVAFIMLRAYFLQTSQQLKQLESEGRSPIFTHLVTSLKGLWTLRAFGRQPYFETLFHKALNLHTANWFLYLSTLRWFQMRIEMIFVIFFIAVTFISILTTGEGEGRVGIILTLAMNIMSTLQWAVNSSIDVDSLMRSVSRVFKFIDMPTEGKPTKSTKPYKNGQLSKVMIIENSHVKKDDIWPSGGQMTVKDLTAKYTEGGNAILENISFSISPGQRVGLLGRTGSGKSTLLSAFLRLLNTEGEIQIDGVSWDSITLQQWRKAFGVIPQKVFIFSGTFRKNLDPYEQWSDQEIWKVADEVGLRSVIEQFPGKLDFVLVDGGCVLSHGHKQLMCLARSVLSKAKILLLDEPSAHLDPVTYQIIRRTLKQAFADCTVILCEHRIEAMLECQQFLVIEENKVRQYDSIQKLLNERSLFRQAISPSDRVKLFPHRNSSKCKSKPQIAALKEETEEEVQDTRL
Summary of the method: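 Primary human intestinal enteroid cells exposed to compound for 18–24 hours at 37 °C, then loaded 25 min with methyl oxonol membrane potential dye plus CaCC inhibitors. Chloride transport triggered in chloride-free buffer with 10 μM forskolin, 100 μM IBMX and 300 nM Compound III, fluorescence read 15 min; % Activity relative to a triple-combination corrector/potentiator control.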

[4] = target: T1, CFTR; assay: Membrane Potential Dye, Enteroid Assay B; type: cell-based; conditions: for EC50: read-out: Ent. B EC50
Summary of the method: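 Activity given as % of a triple-combination reference (1 μM and 3 μM correctors, 300 nM acute potentiator). Enteroids were preincubated 18-24 h with compound; chloride efflux then measured 15 min by methyl oxonol fluorescence after forskolin/IBMX/Compound III stimulation in chloride-free buffer containing CaCCinh-A01 and Chicago Sky Blue.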

SMILES: Cc1cccc(C)c1-c1cc2nc(n1)NS(=O)(=O)c1cccc(c1)C(=O)N(C1CC(NC(=O)OC(C)(C)C)C1)[C@H](CC1(C(F)(F)F)CC1)CO2 (stereo partly drawn)
ring closure, isolated yield ([1]; from Cc1cccc(C)c1-c1cc(OC[C@@H](CC2(C(F)(F)F)CC2)NC2CC(NC(=O)OC(C)(C)C)C2)nc(NS(=O)(=O)c2cccc(C(=O)O)c2)n1, HATU/DIPEA, DMF, 28.6 mM, 16.0 h): 61%

Ent. A Max Activity (%) [3]: ++ (++ is 30-60%) | EC50 [3]: 1 to 3 µM
SMILES: Cc1cccc(C)c1-c1cc2nc(n1)NS(=O)(=O)c1cccc(c1)C(=O)N(C1CC3(CC3)C1)[C@H](C)CO2 [Compound 126, (11R)-6-(2,6-dimethylphenyl)-11-methyl-12-{spiro[2.3]hexan-5-yl}-9-oxa-2λ^6-thia-3,5,12,19-tetraazatricyclo[12.3.1.14,8]nonadeca-1(17),4(19),5,7,14(18),15-hexaene-2,2,13-trione]
ring closure, yield after HPLC ([2]; from Cc1cccc(C)c1-c1cc(OC[C@@H](C)NC2CC3(CC3)C2)nc(NS(=O)(=O)c2cccc(C(=O)O)c2)n1, HATU/TEA, 20.9 mM, 96.0 h): 47%

SMILES: Cc1cccc(C)c1-c1cc2nc(n1)NS(=O)(=O)c1cccc(c1)C(=O)N(C1CC3(CCN(C(=O)OC(C)(C)C)CC3)C1)C[C@@H](C)O2
ring closure, isolated yield ([1]; from Cc1cccc(C)c1-c1cc(O[C@H](C)CNC2CC3(CCN(C(=O)OC(C)(C)C)CC3)C2)nc(NS(=O)(=O)c2cccc(C(=O)O)c2)n1, HATU/DIEA, DMF, 8.8 mM, 6.0 h, 2 steps): 28%

SMILES: Cc1cccc(C)c1-c1cc2nc(n1)NS(=O)(=O)c1cccc(c1)C(=O)N(C1CCN(C(=O)OC(C)(C)C)C1)[C@H](CC(C)C)CO2 (stereo partly drawn)
ring closure, isolated yield ([1]; from Cc1cccc(C)c1-c1cc(OC[C@@H](CC(C)C)NC2CCN(C(=O)OC(C)(C)C)C2)nc(NS(=O)(=O)c2cccc(C(=O)O)c2)n1, COMU/DIPEA, DMF, 10.0 mM, 16.0 h, 2 steps): 28%

SMILES: Cc1cccc(C)c1-c1cc2nc(n1)NS(=O)(=O)c1cccc(c1)C(=O)N(C1CC(OCc3ccccc3)C1)[C@H](CC(C)C)CO2 (stereo partly drawn)
ring closure, isolated yield ([1]; from Cc1cccc(C)c1-c1cc(OC[C@@H](CC(C)C)NC2CC(OCc3ccccc3)C2)nc(NS(=O)(=O)c2cccc(C(=O)O)c2)n1, HATU/DIEA, DMF, 77.3 mM, 15.0 h): 85%

SMILES: COC(=O)C1CC(N2C(=O)c3cccc(c3)S(=O)(=O)Nc3nc(cc(-c4c(C)cccc4C)n3)OC[C@H]2CC(C)(C)C)C1 (stereo partly drawn)
ring closure, isolated yield ([1]; from COC(=O)C1CC(N[C@@H](COc2cc(-c3c(C)cccc3C)nc(NS(=O)(=O)c3cccc(C(=O)O)c3)n2)CC(C)(C)C)C1, COMU/DIEA, DMF, 25.2 mM, 25.0 °C, 21.0 h): 25% and 34%

SMILES: COC(=O)C1CC2(C1)CC(N1C(=O)c3cccc(c3)S(=O)(=O)Nc3nc(cc(-c4c(C)cccc4C)n3)OC[C@H]1CCC(C)C)C2 (stereo partly drawn)
ring closure, isolated yield ([1]; HATU/DIEA, DMF, 25.0 °C, 2 steps): 20%

SMILES: Cc1cccc(C)c1-c1cc2nc(n1)NS(=O)(=O)c1cccc(c1)C(=O)N(C1[C@@H]3C[C@H]1CN(C(=O)OC(C)(C)C)C3)[C@H](CC(C)(C)C)CO2 (stereo partly drawn)
ring closure, isolated yield ([1]; from Cc1cccc(C)c1-c1cc(OC[C@@H](CC(C)(C)C)NC2C3CC2CN(C(=O)OC(C)(C)C)C3)nc(NS(=O)(=O)c2cccc(C(=O)O)c2)n1, COMU/DIEA, DMF, 8.4 mM, 25.0 °C, 24.0 h): 17%

SMILES: Cc1cccc(C)c1-c1cc2nc(n1)NS(=O)(=O)c1cccc(c1)C(=O)N(C1CC3(CCN(C(=O)OC(C)(C)C)CC3)C1)[C@@H](CC(C)C)CO2
ring closure, isolated yield ([1]; from Cc1cccc(C)c1-c1cc(OC[C@H](CC(C)C)NC2CC3(CCN(C(=O)OC(C)(C)C)CC3)C2)nc(NS(=O)(=O)c2cccc(C(=O)O)c2)n1, HATU/DIEA, DMF/THF, 16.0 h, 2 steps): 18%

Ent. A Max Activity (%) [3]: +++ (+++ is >60%) | EC50 [3]: < 1 µM
SMILES: Cc1cccc(C)c1-c1cc2nc(n1)NS(=O)(=O)c1cccc(c1)C(=O)N(C1CC3(CCOCC3)C1)[C@H](CC(C)C)CO2 [Compound 31, (11R)-6-(2,6-Dimethylphenyl)-11-isobutyl-12-(7-oxaspiro[3.5]nonan-2-yl)-2,2-dioxo-9-oxa-2λ^6-thia-3,5,12,19-tetrazatricyclo[12.3.1.14,8]nonadeca-1(18),4(19),5,7,14,16-hexaen-13-one]
ring closure, yield after HPLC ([2]; from Cc1cccc(C)c1-c1cc(OC[C@@H](CC(C)C)NC2CC3(CCOCC3)C2)nc(NS(=O)(=O)c2cccc(C(=O)O)c2)n1, HATU/DIEA, 25.0 °C, 2.0 h, 2 steps): 28%

SMILES: COC(=O)CC1CC(N2C(=O)c3cccc(c3)S(=O)(=O)Nc3nc(cc(-c4c(C)cccc4C)n3)OC[C@H]2CC(C)(C)C)C1 (stereo partly drawn)
ring closure, isolated yield ([1]; from COC(=O)CC1CC(N[C@@H](COc2cc(-c3c(C)cccc3C)nc(NS(=O)(=O)c3cccc(C(=O)O)c3)n2)CC(C)(C)C)C1, COMU/DIEA, DMF, 47.0 mM, 18.0 h): 79%

SMILES: COC(=O)C1CC2(C1)CC(N1C(=O)c3cccc(c3)S(=O)(=O)Nc3nc(cc(-c4c(C)cccc4C)n3)OC[C@H]1CC(C)(C)C)C2 (stereo partly drawn)
ring closure, isolated yield ([1]; from COC(=O)C1CC2(CC(N[C@@H](COc3cc(-c4c(C)cccc4C)nc(NS(=O)(=O)c4cccc(C(=O)O)c4)n3)CC(C)(C)C)C2)C1, COMU/DIEA, DMF, 16.0 h, 2 steps): 51%

SMILES: Cc1cccc(C)c1-c1cc2nc(n1)NS(=O)(=O)c1cccc(c1)C(=O)N(C1CC3(C1)CN(C(=O)OC(C)(C)C)C3)[C@H](CC1(C(F)(F)F)CC1)CO2
ring closure, isolated yield ([1]; from Cc1cccc(C)c1-c1cc(OC[C@@H](CC2(C(F)(F)F)CC2)NC2CC3(C2)CN(C(=O)OC(C)(C)C)C3)nc(NS(=O)(=O)c2cccc(C(=O)O)c2)n1, HATU/TEA, DMF, 35.1 mM, 22.0 h): 49%

Ent. A Max Activity (%) [3]: ++ (++ is 30-60%) | EC50 [3]: < 1 µM
SMILES: Cc1cccc(C)c1-c1cc2nc(n1)NS(=O)(=O)c1cccc(c1)C(=O)N(C1CC3(CC3)C1)[C@H](CCC(C)C)CO2 [Compound 3, (11R)-6-(2,6-Dimethylphenyl)-11-isopentyl-2,2-dioxo-12-spiro[2.3]hexan-5-yl-9-oxa-2λ^6-thia-3,5,12,19-tetrazatricyclo[12.3.1.14,8]nonadeca-1(18),4(19),5,7,14,16-hexaen-13-one]
ring closure, yield after HPLC ([2]; from Cc1cccc(C)c1-c1cc(OC[C@@H](CCC(C)C)NC2CC3(CC3)C2)nc(NS(=O)(=O)c2cccc(C(=O)O)c2)n1, HATU/DIEA, 25.0 °C, 3.0 h, 2 steps): 8%

Ent. A Max Activity (%) [3]: ++ (++ is 30-60%) | EC50 [3]: < 1 µM
SMILES: Cc1cccc(C)c1-c1cc2nc(n1)NS(=O)(=O)c1cccc(c1)C(=O)N(C1CC3(CCC3)C1)[C@H](CC(C)C)CO2 [Compound 32, (11R)-6-(2,6-dimethylphenyl)-11-isobutyl-2,2-dioxo-12-spiro[3.3]heptan-2-yl-9-oxa-2λ^6-thia-3,5,12,19-tetrazatricyclo[12.3.1.14,8]nonadeca-1(18),4(19),5,7,14,16-hexaen-13-one]
ring closure, yield after HPLC ([2]; from Cc1cccc(C)c1-c1cc(OC[C@@H](CC(C)C)NC2CC3(CCC3)C2)nc(NS(=O)(=O)c2cccc(C(=O)O)c2)n1, HATU/DIEA, 25.0 °C, 2.0 h, 2 steps): 44%

Ent. A Max Activity (%) [3]: +++ (+++ is >60%) | EC50 [3]: < 1 µM | Ent. B Max Activity (%) [4]: +++ (+++ is >60%) | EC50 [4]: < 1 µM
SMILES: Cc1cccc(C)c1-c1cc2nc(n1)NS(=O)(=O)c1cccc(c1)C(=O)N(C1CC3(CC3)C1)[C@H](CC(C)(C)C)CO2 [Compound 182, (11R)-6-(2,6-Dimethylphenyl)-11-(2,2-dimethylpropyl)-2,2-dioxo-12-spiro[2.3]hexan-5-yl-9-oxa-2λ^6-thia-3,5,12,19-tetrazatricyclo[12.3.1.14,8]nonadeca-1(18),4(19),5,7,14,16-hexaen-13-one]
ring closure, yield after HPLC ([2]; from Cc1cccc(C)c1-c1cc(OC[C@@H](CC(C)(C)C)NC2CC3(CC3)C2)nc(NS(=O)(=O)c2cccc(C(=O)O)c2)n1, HATU/DIEA, 26.5 mM, 6.0 h): 54%

Ent. A Max Activity (%) [3]: +++ (+++ is >60%) | EC50 [3]: < 1 µM
SMILES: Cc1cccc(C)c1-c1cc2nc(n1)NS(=O)(=O)c1cccc(c1)C(=O)N(C1CC3(CC3)C1)[C@H](CC1CCCCC1)[C@@H](C1CC1)O2 [Compound 1, (10R,11R)-11-(Cyclohexylmethyl)-10-cyclopropyl-6-(2,6-dimethylphenyl)-2,2-dioxo-12-spiro[2.3]hexan-5-yl-9-oxa-2λ^6-thia-3,5,12,19-tetrazatricyclo[12.3.1.14,8]nonadeca-1(18),4(19),5,7,14,16-hexaen-13-one]
ring closure, yield after HPLC ([2]; from Cc1cccc(C)c1-c1cc(O[C@H](C2CC2)[C@@H](CC2CCCCC2)NC2CC3(CC3)C2)nc(NS(=O)(=O)c2cccc(C(=O)O)c2)n1, COMU/TEA, 10.8 mM, 25.0 °C, 1.0 h): 31%

Ent. A Max Activity (%) [3]: +++ (+++ is >60%) | EC50 [3]: < 1 µM | Ent. B Max Activity (%) [4]: +++ (+++ is >60%) | EC50 [4]: < 1 µM
SMILES: Cc1cccc(C)c1-c1cc2nc(n1)NS(=O)(=O)c1cccc(c1)C(=O)N(C1CC3(CCN(CC(F)(F)F)CC3)C1)[C@H](CC(C)C)CO2 [Compound 18, (11R)-6-(2,6-dimethylphenyl)-11-isobutyl-2,2-dioxo-12-[7-(2,2,2-trifluoroethyl)-7-azaspiro[3.5]nonan-2-yl]-9-oxa-2λ^6-thia-3,5,12,19-tetrazatricyclo[12.3.1.14,8]nonadeca-1(18),4(19),5,7,14,16-hexaen-13-one]
ring closure, yield after HPLC ([2]; from Cc1cccc(C)c1-c1cc(OC[C@@H](CC(C)C)NC2CC3(CCN(CC(F)(F)F)CC3)C2)nc(NS(=O)(=O)c2cccc(C(=O)O)c2)n1, HATU/DIEA, 25.0 °C, 2.0 h, 2 steps): 17%
